Patent US4385057A, “Diphenylbutyl-piperazinecarboxamides in pharmaceutical compositions and methods” (priority 1978, dated 1983)
Where two headings read alike, the source gives them in different places.

Experiments:
[1] = tested on: isolation-induced aggressive behaviour of male mice; test: Isolation-induced aggressive behaviour; format: in vivo, mouse (male NMR mice); details: Mus musculus, sc, read-out: ED50, mg/kg, sc (dose inhibiting aggressive behaviour among 50 percent of the pairs)
Text: Male mice subjected to prolonged isolation develop aggressive behavior against each other when paired. […] The clinical correlation of this test indicates tranquillizing and anxiolytic activities as well as antiaggressive properties as such (R. L. Duncan et al., J. Med. Chem. 13, 1 (1970)).
This type of aggression is interesting because it is known that this kind of emotional behaviour might be located in limbic structures in the brain (P. D. Mac Lean, Psychosom. Med. 11, 338 (1949)).
Every week 24 male NMR mice, weighing 20-22 g, were isolated in Makrolon cages for three weeks with diet and water ad libitum. A piece of cardboard was placed between the cages to prevent visual contact.
To test aggressiveness the mice were paired in a neutral area, a beaker (14 cm high and diameter 14 cm). A pair is considered aggressive if both the animals show clear signs of fighting within 5 min. This fighting is characterized by biting and vocalization. As soon as fighting is seen, the mice are separated and brought to their home cage. […] Animals showing no aggression are discarded. […] The test substance is administered s.c. (0.2-0.4 ml/20 g). The mice are paired 1/2 h, 1 h, 2 h, 4 h, 6 h and 24 h after the injection for trials of 5 min. duration.
The ED50 -value (mg/kg) reported is the dose inhibiting aggressive behaviour among 50 percent of the pairs 1.0 hour after drug administration.

[2] = tested on: mouse-killing behaviour of rats; test: Spontaneous mouse-killing (muricide) by rats; format: in vivo, rat (male hooded Long-Evans); details: Rattus norvegicus, sc
Text: For the purpose of detecting new psychotropic substances with antiaggressive properties, pharmacologist have used several different models. […] This form of aggressive behaviour which is considered to be of predatory nature, is physiologically and topographically different from other forms of aggression (M. O'Boyle, Psychol. Bull. 81, 261 (1974)). Mousekilling is a spontaneous behaviour in some rat strains e.g. male hooded Long-Evans rats. Male hooded Long-Evans rats placed in individual cages were used. By testing a number of rats, a colony of rats was obtained that killed a mouse whenever introduced into the rats' cage, by biting the mouse through the cervical spinal cord. Each rat was tested for mouse-killing behaviour (killing a mouse within 5 minutes) prior to each experiment, thus serving as its own positive control. For each dose level 6 positive rats were selected and the test substance was administered by subcutaneous injection. Doses were selected to form a dose-response curve and the mean effective dose (ED50, mg/kg) was calculated by means of linear regression. The rats were tested at 1, and 2 hours after being injected subcutaneously.

[3] = tested on: exploratory activity / climbing of mice; test: Climbing (inability to ascend net-ladder); format: in vivo, mouse (NMRI female); details: Mus musculus, sc, read-out: ED50, mg/kg, s.c. (dose rendering 50% of the mice incapable of entering the top of the net-ladder)
Method: When mice are placed in a new area, they explore the whole available territory. Minor and major tranquillizers inhibit the exploratory activity. The sedative effect of drugs is evaluated by the inability of mice to ascend a netladder. The process of climbing is very complex and consists of psychical and taxic (motor performance) components. For the experiments a transparent cage (36×27×23 cm) and a net-ladder (35×6 cm) standing with an inclination of 45° was used. (P. Kneip. Arch. Int. Pharmacodyn. 76, 238 (1960); F. Sandberg, Arzneimittelforsch. 4, 203 (1959)).
The test compound is administered s.c. (10 ml/kg) to 6 NMRI female mice per dose. The mice are marked with a number code from 1 to 6, in order to recognize each individual mouse. In 25 minutes, 55 minutes, 1 h 55 minutes and 3 h 55 minutes time after the administration the mice are placed in the above-mentioned cage for 10 minutes. The number of mice ascending the top of the net-ladder is noted. Other behavioural items are also noted. The ED50 (mg/kg) reported is the dose rendering 50% of the mice incapable of entering the top of the net-ladder 0.5 h after the administration.

[4] = tested on: acetic acid induced writhing; test: Writhing test (analgetic properties); format: in vivo, mouse (NMRI female); details: Mus musculus, sc, 20 min before acetic acid i.p.; read-out: ED50, mg/kg, s.c. (dose blocking the writhing behaviour in 50% of the animals)
Method: The writhing test is a frequently used test of analgetic properties (L. B. Witkin et al., J. Pharmacol. Exp. Ther. 133, 400 (1961)). If acetic acid (0.5%, 15 ml/kg) is injected intraperitoneally in mice (NMRI) they will without exception develop a writhing behaviour characterized by stretching their hind legs. The drugs to be tested were administered subcutaneously to 6 female mice at each dose 20 min. before the injection of the acetic acid. After 10 min. the behaviour of the mice was studied in 5 min. The ED50 value is the dose blocking the writhing behaviour in 50% of the animals during the 5 min. study period. [drawing 13]

pigs = test: Social parameters and aggression of pigs in stress situations; format: in vivo, pig; details: in words; for stabilization of social parameters: aggression, hierarchy, interaction, cleanliness, feeding behaviour; for effect on aggression: stress situations
Text: Among domestic animals pigs are exposed to a wide variety of stresses, e.g. after weaning, at transports and at regrouping of animals. By studying social parameters such as aggression, hierarchy, interaction, cleanliness in their living space and feeding behaviour in different stress situations the new compounds of formula I have been compared with established drugs, e.g. azaperone and acepromazine, now used in handling pigs.

[5] = tested on: guinea pig papillary muscle; details: cited from earlier work
central 5HT receptors = details: established antidepressant drugs; in words; cited from earlier work
thymus = test: Swim-test (stress-induced thymolymphatic involution); format: in vivo, mouse (NMRI female); details: for protecting capacity against the induced stress: in words; for Relative weight of thymus, ×100: once 10 min before first swim-test, saline stressed 36, unstressed 66, Wilcoxon's ranking test
Text: If an animal is in a stage of exhaustion the rise in glucocorticoids induced by the stress causes thymolymphatic involution and elicites a characteristic change in blood count. […] In the experiments NMRI female mice were used with well-documented thymic glands. In the experiments the mice were divided in four groups. In the first group the mice were allowed to stay in their home cages all the time. In the second group saline-treated mice were repeatedly forced to swim in water at a temperature of +5° C. for 1 min. once every hour, 6 times per day for four days. In the third group the mice were pre-treated once with the test compound 10 min. before the first swim-test, otherwise the mice were manipulated in the same way as in the second group. In the fourth group the mice were adrenalectomized three days before the start of the swim tests. Otherwise also this group was manipulated as the second group. All mice were killed on the 5th day of the experiment and the weight of the thymic gland registered.

gastric ulcers in rats = test: Stress-induced ulcers (restraint and cold); format: in vivo, rat (female Sprague Dawley); details: 15 min before cold and restraint
Text: A number of methods have been described for studies of somatic expression of adverse stimulation in experimental animals. One method is based upon the development of gastric lesions in rat subjected to some form of environmental stress. The most frequently used mode of stressing the rats is by simple physical restraint. In the experiments to be described rats were immobilized in rigid plastic devices. As repeatedly shown the restraint and the exposure to cold, act synergistically to produce gastric ulcers. The method for production of stress ulcus in rats has been described earlier (R. J. Levine In: C. J. Pfeiffer ed., Peptic Ulcer, Scand. Univ. Books, Copenhagen 1971). The animals in the experiments, female Sprague Dawley rats 180-230 g, have been kept immobilized for three hours at +5° C. For 24 hours prior to restraint the animals furthermore were not allowed to ingest anything but tap water. In all experiments the rats were divided in three groups. In the first group all animals were pre-treated only with saline 15 min. before the exposure to the stressors. […] The third group consisted always of the compound to be tested in this model. The number and severity of gastric erosions in the opened stomach of controls and drug-pre-treated animals were scored. The average number of gastric ulcers in the control rats were put equal to a hundred percent. In table VI the potency of some compounds to protect against gastric ulcers in the described experiments is reported. All pre-treatments were always made 15 min. before the exposure to cold and restraint.

Geller conflict test = format: in vivo; details: s.c., ** (Student's t-test)
Text: The Geller conflict test for anxiolytics clearly meets the requirements for a standard model and is most useful operant paradigm in screening for new drugs. (I. Geller and J. Seifler, Psychopharmacologia l, 482 (1960); B. Blackwell and W. E. Whitehead, In: A. Sudilovsky, S. Gershorn and B. Beer, eds. Predictability in Psychopharmacology: Preclinical and Clinical Correlations. Raven Press New York pp. 121, (1975)).

[6] = tested on: isolation-induced aggressive behaviour of male mice; details: background on clinically used drugs; in words; cited from earlier work
[7] = tested on: guinea pig papillary muscle; test: Prolongation of effective refractory period in guinea pig papillary muscle; details: 10^-7 M; pacing frequencies 1, 2 and 4 Hz
[8] = 1.0 hour after drug administration
[9] = read-out: ED50, mg/kg, s.c., 2 hrs after injection
[10] = 1 hr after injection, read-out: ED50, mg/kg, s.c., 1 hr

For `CNC(=O)N1C[C@H](C)N(CCCC(c2ccc(F)cc2)c2ccc(F)cc2)C[C@H]1C` (relative stereo) [III, trans-2,5-Dimethyl-N'-methyl-4-[4,4-(di-p-fluorophenyl)butyl]-1-piperazinecarboxamide], the ED50 [1, 8] was 2.6 mg/kg, the ED50 [2, 9] was 2.9 mg/kg and the ED50 [2, 10] was 1.9 mg/kg. It also gave an ED50 ([3]; 0.5 h after administration) of 1 mg/kg and an ED50 [4] of 1 mg/kg.

With `CC(=O)c1ccc2c(c1)N(CCCN(C)C)c1ccccc1S2` [Acepromazine] the “stabilization of social parameters” value (pigs) was “did not improve any social parameter” and the effect on aggression (pigs) was “blocked aggression by an unspecific mechanism of sedation”.

For `CCCCc1oc2ccccc2c1C(=O)c1cc(I)c(OCCN(CC)CC)c(I)c1` [Amiodarone], the “change of the effective refractory period” value (from here on “change”) ([5]; 10^-5 M) is given as 35 ms.

`CN(C)CCC=C1c2ccccc2CCc2ccccc21` [Amitriptyline, reference compound] gave an ED50 [1, 8] of 5 mg/kg, an ED50 [2, 9] of 6.4 mg/kg and an ED50 [2, 10] of over 10 mg/kg. The “blockade of central 5HT receptors” value (central 5HT receptors) was “potent blockers”.

With `O=C(CCCN1CCN(c2ccccn2)CC1)c1ccc(F)cc1` [Azaperone] the “protecting capacity against the induced stress” value (“protecting capacity” for short) (thymus) was “less effective”, the “Relative weight of thymus, ×100” value (thymus; pre-treatment dose 1.0 mg/kg) was 48 and the “Inhibition, % (gastric ulcers)” value (gastric ulcers in rats; pre-treatment dose 1.0 mg/kg) was 0%. For the same molecule, the “stabilization of social parameters” value (pigs) was “did not improve any social parameter” and the effect on aggression (pigs) was “blocked aggression by an unspecific mechanism of sedation”.

Molecule `CN(C)CCCN1c2ccccc2Sc2ccc(Cl)cc21` [Chlorpromazine, reference compound] has an ED50 ([1]; 1 h) of 1.4 mg/kg and an ED50 ([3]; 0.5 h) of 2 mg/kg.

For `CN1C(=O)CN=C(c2ccccc2)c2cc(Cl)ccc21` [Diazepam, reference compound], the “Percent shocks compared to controls” value (Geller conflict test; dose 1.0 mg/kg) is listed as 240% and the “effect on isolation-induced aggressive behaviour” value [6] is listed as “active”.

`O=C(CCCN1CCC(O)(c2ccc(Cl)cc2)CC1)c1ccc(F)cc1` [Haloperidol, reference compound] gave an ED50 ([3]; 0.5 h) of 1.3 mg/kg.

With `CNC(=O)N1CCN(CCCC(c2ccc(F)cc2)c2ccc(F)cc2)CC1` [I, N'-Methyl-4-[4,4-(di-p-fluorophenyl)butyl]-1-piperazinecarboxamide] the ED50 [1, 8] was 4.8 mg/kg, the ED50 [2, 9] was 0.7 mg/kg and the ED50 [2, 10] was 0.5 mg/kg. For the same molecule, the ED50 ([3]; 0.5 h after administration) was 1.5 mg/kg and the ED50 [4] was 0.5 mg/kg.

`CCNC(=O)N1CCN(CCCC(c2ccc(F)cc2)c2ccc(F)cc2)CC1` [II, N'-Ethyl-4-[4,4-(di-p-fluorophenyl)butyl]-1-piperazinecarboxamide] showed an ED50 [1, 8] of 1.3 mg/kg, an ED50 [2, 9] of 1.9 mg/kg and an ED50 [2, 10] of 0.4 mg/kg. The ED50 ([3]; 0.5 h after administration) was 0.7 mg/kg, the “Percent shocks compared to controls” value (Geller conflict test; dose 0.5 mg/kg) was 250% and the “protecting capacity” value (thymus) was “most protecting capacity”. For the same molecule, the “Relative weight of thymus, ×100” value (thymus; pre-treatment dose 1.0 mg/kg) was 50, the “Inhibition, % (gastric ulcers)” value (gastric ulcers in rats; pre-treatment dose 1.0 mg/kg) was 43% and the ED50 [4] was 0.7 mg/kg. The “prolongation of the effective refractory period” value [7] was 30 ms.

`CNC(=S)N1CCN(CCCC(c2ccc(F)cc2)c2ccc(F)cc2)CC1` [IV, N'-Methyl-4-[4,4-(di-p-fluorophenyl)butyl]-1-piperazinecarbothioamide] gave an ED50 [1, 8] of 2 mg/kg, an ED50 [2, 9] of 0.1 mg/kg and an ED50 [2, 10] of 0.1 mg/kg. The ED50 ([3]; 0.5 h after administration) was 5.1 mg/kg and the ED50 [4] was 1.4 mg/kg.

In the case of `CCN(CC)CC(=O)Nc1c(C)cccc1C` [Lidocain], the “change” value ([5]; 10^-7 M) is listed as 20 ms.

For `CN1CCN2c3ccccc3Cc3ccccc3C2C1` (stereo not drawn) [Mianserin], the “blockade of central 5HT receptors” value (central 5HT receptors) is listed as “potent blockers”.

With `CN1CC[C@]23c4c5ccc(O)c4O[C@H]2[C@@H](O)C=C[C@H]3[C@H]1C5` [Morphine] the “Inhibition, % (gastric ulcers)” value (gastric ulcers in rats; pre-treatment dose 2.0 mg/kg) was 67%.

With `CC(C)NCC(O)COc1cccc2ccccc12` (stereo not drawn) [Propranolol] the “protecting capacity” value (thymus) was “less effective” and the “Relative weight of thymus, ×100” value (thymus; pre-treatment dose 10.0 mg/kg) was 48.

For `C=C[C@H]1C[N@@]2CC[C@H]1C[C@@H]2[C@@H](O)c1ccnc2ccc(OC)cc12` [Quinidine], the “change” value ([5]; 10^-6 M) is listed as 14 ms.
